In brackets after ≈: the same amount, converted by molar mass.
Experiments:
[1] = system: M. hemolytica KB345 (Tilmicosin-sensitivity strain); experiment: Paper disc assay, M. hemolytica KB345; type: cell-based, Mannhemia hemolytica
Protocol: (§1) (1) Antibacterial activities against Mannheimia and Pasteurella were determined by the following steps: • 1) M. hemolytica KB345 (Tilmicosin-sensitivity strain) and M. hemolytica KB346 (Tilmicosin-low sensitivity strain) were provided. KB 345 strain stored at −80° C. was seeded to BHIB agar medium (10 mL) by using Microbank beads (Pro-Lab) and platinum nail. After statically incubating the KB 345 strain for 24 hours at 37° C., it was seeded to maintaining slant BHIB agar medium (7 mL) by using platinum loop, further statically incubated for 24 hours at 37° C. to obtain slant. One platinum loop of KB 345 strain stored at the slant was inoculated into a large test tube charged with BHIB liquid medium (10 mL) and then incubated for 24 hours at 37° C. with shaking. • 2) A paper disc (ADVANTEC, Φ:6 mm) was impregnated with a solution of test compound and dried under reduced pressure. • 3) To a melted BHIB agar medium was inoculated 1% of the broth obtained from step 1) above to prepare a test plate. After the medium set, the paper disc prepared in step 2) above was put on the plate and it was incubated at 37° C. • 4) After one day, the inhibition zone diameter and clarity (A to E) were determined. For KB346 strain, the same procedures were repeated.

[2] = system: Mannheimia haemolytica, 3 isolates; experiment: MIC against Mannheimia haemolytica isolates; type: cell-based
Protocol: (§2) Minimal inhibitory concentrations (MICs) were determined against the most prevalent pathogens in cattle (Mannheimia Haemolytica, 3 isolates) and swine (A. pleuropneumoniae, 6 isolates). In addition the activity of several compounds was tested against two bacterial species, i.e. Mannheimia haemolytica and Actinobacillus pleuropneumoniae, which are considered as the most important bacterial respiratory pathogens in cattle and swine, respectively.

[3] = system: M. hemolytica KB346 (Tilmicosin-low sensitivity strain); experiment: Paper disc assay, M. hemolytica KB346; type: cell-based, Mannhemia hemolytica
Protocol: as §1

[4] = system: Actinobacillus pleuropneumoniae, 6 isolates; experiment: MIC against Actinobacillus pleuropneumoniae isolates; type: cell-based
Protocol: as §2

[5] = system: Streptococus dysgalactiae; experiment: MIC50 mastitis pathogens, broth dilution; type: cell-based; details: Str dysgalactiae, 7 to 12 isolates, 24 hours
Excerpt: (§3) The activity of several compounds against bacterial mastitis pathogens has been tested under in-vitro conditions according to a recognized procedure (CLSI, document […]-A3, 2008). In this test 7 to 12 representative bacteria belonging to 7 bacterial species that typically cause mastitis in dairy cattle, i.e. Staphylococcus aureus, coagulase negative staphylococci (CNS), Streptococcus uberis, Streptococus dysgalactiae, Streptococcus agalactiae, Arcanobacterium pyogenes and Escherichia coli, were exposed to two-fold dilutions of the test compounds. After 24 hours of incubation the concentration that inhibited the growth of this bacteria was determined. It could be shown that all these bacterial mastitis pathogens were highly susceptible to the test compounds.

Escherichia coli = experiment: MIC50 mastitis pathogens, broth dilution; type: cell-based; details: E. coli, 7 to 12 isolates, 24 hours
Excerpt: as §3

Streptococcus agalactiae = experiment: MIC50 mastitis pathogens, broth dilution; type: cell-based; details: Str agalactiae, 7 to 12 isolates, 24 hours
Excerpt: as §3

Streptococcus uberis = experiment: MIC50 mastitis pathogens, broth dilution; type: cell-based; details: Str uberis, 7 to 12 isolates, 24 hours
Excerpt: as §3

[6] = system: coagulase negative staphylococci (CNS); experiment: MIC50 mastitis pathogens, broth dilution; type: cell-based; details: 7 to 12 isolates, 24 hours
Excerpt: as §3

Staphylococcus aureus = experiment: MIC50 mastitis pathogens, broth dilution; type: cell-based; details: S. aureus, 7 to 12 isolates, 24 hours
Excerpt: as §3

Arcanobacterium pyogenes = experiment: MIC50 mastitis pathogens, broth dilution; type: cell-based; details: Trueperella pyogenes, A. pyogenes, 7 to 12 isolates, 24 hours
Excerpt: as §3

[7] = system: Xanthomonas campestris KB88; experiment: Paper disc assay, Xanthomonas campestris; type: cell-based; details: X
Protocol: (§4) (2) Antibacterial activities against other bacteria were determined with Micrococcus luteus ATCC9341 (1), Bacillus subtilis […] (s), Escherichia coli NIHJ (c), Xanthomonas campestris KB88 (X), Mucor racemosus IFO 4581 (Mu) and Candida albicans ATCC 64548 (Ca).
(§5) Bacillus subtilis ATCC6633 was incubated in Davis synthetic medium and then the seed broth was combined with the medium in the ratio of 1:99 to obtain a test plate. Micrococcus luteus ATCC9341, Escherichia coli NIHJ and Xanthomonas campestris KB88 were respectively incubated in Nutrient agar medium and inoculated at 0.2%, 0.5% and 1.0%. Mucor racemosus IFO 4581 and Candida albicans ATCC 64548 were respectively incubated in GY agar medium and then inoculated at 0.3% and 0.2%.
(§6) A paper disc (ADVANTEC, Φ:6 mm) was impregnated with a solution of test compound and dried under reduced pressure. The paper disc was put on the test plate and it was incubated for 24 hours at 37° C. After incubation, the inhibition zone diameter and clarity (A to E) were determined.

[8] = system: Bacillus subtilis ATCC6633; experiment: Paper disc assay, Bacillus subtilis; type: cell-based; details: S
Protocol: as §4, §5, §6

[9] = system: Micrococcus luteus ATCC9341; experiment: Paper disc assay, Micrococcus luteus; type: cell-based; details: column 1
Protocol: as §4, §5, §6

Row | SMILES | Inhibition zone ([1]; 10 mg/6 mm disk, Table 4) [mm] | Inhibition zone ([1]; 30 mg/6 mm disk, Table 4) [mm] | Inhibition zone ([1]; 100 mg/6 mm disk, Table 4) [mm] | Inhibition zone ([3]; 100 mg/6 mm disk, Table 5) [mm] | MIC50 [5] [mg/L] | MIC50 (Escherichia coli) [mg/L] | MIC50 (Streptococcus agalactiae) [mg/L] | MIC50 (Streptococcus uberis) [mg/L] | MIC50 [6] [mg/L] | MIC50 (Staphylococcus aureus) [mg/L] | MIC50 (Arcanobacterium pyogenes) [mg/L] | further results
1 | CCC1OC(=O)CC(O)C(C)C(OC2OC(C)C(O)C(N(C)C)C2O)C(CCn2cc(-c3ccccc3)nn2)CC(C)C(=O)C=CC(C)=CC1CO (stereo not drawn) [YT112, 20-(4-phenyl-1H-1,2,3-triazol-1-yl)-20-deoxo-5-O-mycaminosyltylonolide] | 20.0 | 25.0 | 29.0 | 11.5 | – | – | – | – | – | – | – | Inhibition zone ([1]; 3 mg/6 mm disk, Table 4): 17.0 mm; MICs ([2]; M. haemolytica isolate 1): 8 µg/mL; MICs ([2]; M. haemolytica isolate 2): 4 µg/mL; MICs ([2]; M. haemolytica isolate 3): 8 µg/mL; MICs ([4]; pleuropneumoniae isolate 1): 4 µg/mL; MICs ([4]; pleuropneumoniae isolate 2): 4 µg/mL; MICs ([4]; pleuropneumoniae isolate 3): 4 µg/mL; MICs ([4]; pleuropneumoniae isolate 4): 8 µg/mL; MICs ([4]; pleuropneumoniae isolate 5): 4 µg/mL; MICs ([4]; pleuropneumoniae isolate 6): 8 µg/mL
2 | CCC1OC(=O)CC(O)C(C)C(OC2OC(C)C(O)C(N(C)C)C2O)C(CCCl)CC(C)C(=O)C=CC(C)=CC1COC1OC(C)C(O)C(OC)C1OC (stereo not drawn) [YT8, 20-chloro-20-deoxodesmycosin] | – | – | – | – | – | – | – | – | – | – | – | Inhibition zone ([1]; 10 mg/6 mm disk, Table 2): 12.5 mm; Inhibition zone ([1]; 30 mg/6 mm disk, Table 2): 18.0 mm; Inhibition zone ([1]; 100 mg/6 mm disk, Table 2): 20.0 mm; Inhibition zone ([3]; 30 mg/6 mm disk, Table 3): 11.0 mm; Inhibition zone ([3]; 100 mg/6 mm disk, Table 3): 14.5 mm
3 | CCC1OC(=O)CC(O)C(C)C(OC2OC(C)C(O)C(N(C)C)C2O)C(CCN=[N+]=[N-])CC(C)C(=O)C=CC(C)=CC1COC1OC(C)C(O)C(OC)C1OC (stereo not drawn) [YT11, 20-azido-20-deoxodesmycosin] | – | – | – | – | – | – | – | – | – | – | – | Inhibition zone ([1]; 3 mg/6 mm disk, Table 2): 10.0 mm; Inhibition zone ([1]; 10 mg/6 mm disk, Table 2): 13.0 mm; Inhibition zone ([1]; 30 mg/6 mm disk, Table 2): 16.0 mm; Inhibition zone ([1]; 100 mg/6 mm disk, Table 2): 18.0 mm; Inhibition zone ([3]; 100 mg/6 mm disk, Table 3): 11.0 mm
4 | CC[C@H]1OC(=O)C[C@@H](O)[C@H](C)[C@@H](O[C@@H]2O[C@H](C)[C@@H](O)[C@H](N(C)C)[C@H]2O)[C@@H](CC=O)C[C@@H](C)C(=O)/C=C/C(C)=C/[C@@H]1CO[C@@H]1O[C@H](C)[C@@H](O)[C@@H](OC)[C@H]1OC [YT6, Desmycosin] | – | – | – | – | – | – | – | – | – | – | – | Inhibition zone ([1]; 30 mg/6 mm disk, Table 2): 10.5 mm; Inhibition zone ([3]; 3 mg/6 mm disk, Table 3): 8.5 mm; Inhibition zone ([3]; 10 mg/6 mm disk, Table 3): 13.5 mm; Inhibition zone ([3]; 30 mg/6 mm disk, Table 3): 17.5 mm; Inhibition zone ([3]; 100 mg/6 mm disk, Table 3): 21.0 mm
5 | CC[C@H]1OC(=O)C[C@@H](O)[C@H](C)[C@@H](O[C@@H]2OC(C)[C@@H](O)C(N(C)C)C2O)[C@@H](CCN(Cc2ccccc2)Cc2cn(-c3ccc4ccccc4c3)nn2)C[C@@H](C)C(=O)/C=C/C(C)=C/[C@@H]1CO (stereo partly drawn) [YT762] | – | – | – | – | 0.12 (≈ 0.134 µM) | 8 (≈ 8.93 µM) | 0.03 (≈ 0.0335 µM) | 0.03 (≈ 0.0335 µM) | 0.25 (≈ 0.279 µM) | 1 (≈ 1.12 µM) | 0.015 (≈ 0.0167 µM) | –
6 | CC[C@H]1OC(=O)C[C@@H](O)[C@H](C)[C@@H](O[C@@H]2OC(C)[C@@H](O)C(N(C)C)C2O)[C@@H](CCN(C)Cc2cn(-c3cnc4ccccc4c3)nn2)C[C@@H](C)C(=O)/C=C/C(C)=C/[C@@H]1CN1CCCCC1 (stereo partly drawn) [YT769] | – | – | – | – | ≤ 0.015 | 4 (≈ 4.5 µM) | ≤ 0.015 | ≤ 0.015 | 0.25 (≈ 0.281 µM) | 0.25 (≈ 0.281 µM) | ≤ 0.015 | –
7 | CC[C@H]1OC(=O)C[C@@H](O)[C@H](C)[C@@H](O[C@@H]2O[C@H](C)[C@@H](O)[C@H](N(C)C)[C@H]2O)[C@@H](CC=O)C[C@@H](C)C(=O)/C=C/C(C)=C/[C@@H]1CO [YT106, 5-O-mycaminosyltylonolide] | 8.5 | 12.5 | 15.0 | 17.0 | – | – | – | – | – | – | – | Inhibition zone ([3]; 10 mg/6 mm disk, Table 5): 9.0 mm; Inhibition zone ([3]; 30 mg/6 mm disk, Table 5): 13.0 mm
8 | CC[C@H]1OC(=O)C[C@@H](O)[C@H](C)[C@@H](O[C@@H]2OC(C)[C@@H](O)C(N(C)C)C2O)[C@@H](CCNCc2cn(-c3cnc4ccccc4c3)nn2)C[C@@H](C)C(=O)/C=C/C(C)=C/[C@@H]1CO (stereo partly drawn) [YT739] | – | – | – | – | 0.12 (≈ 0.149 µM) | 8 (≈ 9.91 µM) | 0.03 (≈ 0.0372 µM) | 0.03 (≈ 0.0372 µM) | 0.25 (≈ 0.31 µM) | 0.5 (≈ 0.62 µM) | 0.008 (≈ 0.00991 µM) | –
9 | CC[C@H]1OC(=O)C[C@@H](O)[C@H](C)[C@@H](O[C@@H]2OC(C)[C@@H](O)C(N(C)C)C2O)[C@@H](CCn2cc(-c3ccccn3)nn2)C[C@@H](C)C(=O)/C=C/C(C)=C/[C@@H]1CO[C@@H]1OC(C)[C@@H](O)C(OC)C1OC (stereo partly drawn) [YT12, 20-(4-(pyridine-2-yl)-1H-1,2,3-triazol-1-yl)-20-deoxodesmycosin] | – | – | – | – | – | – | – | – | – | – | – | Inhibition zone ([7]; 0.1 mg/6 mm disc): 7 mm; Inhibition zone ([7]; 10 mg/6 mm disc): 27 mm; Inhibition zone ([8]; 0.1 mg/6 mm disc): 7 mm; Inhibition zone ([8]; 1 mg/6 mm disc): 12.5 mm; Inhibition zone ([8]; 10 mg/6 mm disc): 14 mm; Inhibition zone ([9]; 0.1 mg/6 mm disc): 12 mm; Inhibition zone ([9]; 1 mg/6 mm disc): 18.5 mm; Inhibition zone ([9]; 10 mg/6 mm disc): 25 mm
10 | CC[C@H]1OC(=O)C[C@@H](O)[C@H](C)[C@@H](O[C@@H]2OC(C)[C@@H](O)C(N(C)C)C2O)[C@@H](CCN(C)Cc2cn(-c3cnc4ccccc4c3)nn2)C[C@@H](C)C(=O)/C=C/C(C)=C/[C@@H]1CO (stereo partly drawn) [YT650] | – | – | – | – | 0.03 (≈ 0.0365 µM) | 8 (≈ 9.74 µM) | 0.008 (≈ 0.00974 µM) | 0.03 (≈ 0.0365 µM) | 0.25 (≈ 0.304 µM) | 0.25 (≈ 0.304 µM) | 0.004 (≈ 0.00487 µM) | –
11 | CCC1OC(=O)CC(O)C(C)C(OC2OC(C)C(O)C(N(C)C)C2O)C(CC=O)CC(C)C(=O)C=CC(C)=CC1CN=[N+]=[N-] (stereo not drawn) [YT107, 23-azido-23-deoxo-5-O-mycaminosyltylonolide] | 16.0 | 18.0 | 21.5 | 15.0 | – | – | – | – | – | – | – | Inhibition zone ([1]; 3 mg/6 mm disk, Table 4): 12.0 mm; Inhibition zone ([3]; 30 mg/6 mm disk, Table 5): 10.5 mm
12 | CCC1OC(=O)CC(O)C(C)C(OC2OC(C)C(O)C(N(C)C)C2O)C(CC=O)CC(C)C(=O)C=CC(C)=CC1CI (stereo not drawn) [YT111] | 15.5 | 20.0 | 25.0 | 13.0 | – | – | – | – | – | – | – | Inhibition zone ([1]; 3 mg/6 mm disk, Table 4): 11.5 mm; Inhibition zone ([3]; 30 mg/6 mm disk, Table 5): 8.5 mm
13 | CC[C@H]1OC(=O)C[C@@H](O)[C@H](C)[C@@H](O[C@@H]2OC(C)[C@@H](O)C(N(C)C)C2O)[C@@H](CCN(C)Cc2cn(-c3cnc4ccccc4c3)nn2)C[C@@H](C)C(=O)/C=C/C(C)=C/[C@@H]1CN(C)C (stereo partly drawn) [YT770] | – | – | – | – | 0.03 (≈ 0.0354 µM) | 4 (≈ 4.72 µM) | ≤ 0.015 | 0.03 (≈ 0.0354 µM) | 0.25 (≈ 0.295 µM) | 0.25 (≈ 0.295 µM) | ≤ 0.015 | –
